Test results published in patent US20260306633A1, “A COMBINATION THERAPY FOR CANCER TREATMENT” (Purdue Research Foundation, priority 2023, published 2026).
Where “and” joins values, the source holds several entries; their conditions need not be identical. Equal values may be shown once. Entries after “also recorded” stand apart in the source; their conditions may differ.

Tests used:
TNBC BT-549 cells = test: Cell survival / cell inhibition (MTT cell cytotoxicity assay) after 24 h treatment with photosensitizer and/or chemotherapeutic agent, dark or light-irradiated; assay type: cell-based, human
Experimental: Human mammary epithelial carcinoma cell lines purchased from the American Type Culture Collection BT-549 (ATCC HTB-122) were cultured according to ATCC protocol. BT-549 cells were grown in RPMI 1640 containing 0.023 IU/mL insulin and supplemented with 10% fetal bovine serum (FBS). Cells were grown to 80-90% confluence in 75-cm^2 culture flasks (Corning) for 4-5 days in a humidified incubator (Fisher Scientific Isotemp) with 5% CO2 at 37° C. During the incubation period, growth media was changed once with fresh pre-warmed media (pH 7.2). To harvest the cells, old growth media was aspirated out, and 3 mL 0.25% trypsin solution (Thermo Sci Hyclone) were added. The cells were incubated for 5 minutes, and the cell pellet after centrifugation was resuspended in 3 mL media, broken up gently, then 1 mL of suspended cells was transferred into a new T75 cell culture flask containing pre-warmed media (20 mL) for further culturing.
(§1) Cells were grown to confluence in a 96-well plate (9×10^3 cells/well) and co-treated for 24 hours with synthesized photosensitizers (PSs) and chemotherapeutic agents of varying concentrations ranging from 5 nM to 50 μM) in growth media from a stock solution of 10 mM in DMSO (dimethyl sulfoxide, Fisher). After 24-hour treatment, old growth media containing the PSs or compounds were aspirated out and replaced with fresh media. Plates were then positioned below a non-coherent LumaCare LC-122 650 nm light source for 1 minute at an energy fluence rate of 0.96 J/cm^2 and a power of 16 mW/cm^2 (measured using a Newport optical power meter Model 840). Unirradiated cells served as control samples. The following day, cells were washed with pre-warmed PBS, and 11MTT (3-[4,5-dimethyl-thiazol-2-yl]-2.5-diphenyltetrazolium bromide, Sigma, 0.3 mg/mL) in PBS was added to each well. Samples were allowed to incubate for additional 2 hours, after which dark blue crystals formed. DMSO was added to each well and plates were shaken at room temperature for 1 hour to dissolve the purplish-blue formazan crystals. Absorbance values at 570 nm were measured on a microplate reader (BioRad 550). Cell survival was calculated based on the absorbance of the untreated cells alone (as control) and were directly proportional to the number of viable cells in culture. Results were reported as the mean±SD of triplicate measurements.
The unmetallated PS and the indium complexes were used.
Light dose corresponds to an energy fluence rate of 0.96 J/cm^2 used.
Power of 16 mW/cm^2 used.
Cell inhibition in TNBC cells is based on the cell survival (MTT) assay of the binary therapy, blending the effect of PDT and chemotherapeutic agents. […] MePheo serves as a control compound. TNBC cells were then exposed to light after binary treatment for 24 hours.

TNBC cells [1] = test: Combination index (CI) of binary therapy, Chou-Talalay method, CompuSyn software; assay type: cell-based, human
Experimental: (§2) The calculated CI values are based on 50 nM concentration for the PSs, 50 nM paclitaxel, 500 nM doxorubicin, 25 μM cisplatin, 25 μM fluorouracil, and 500 nM methotrexate.
as §1
The combination index (CI) for the binary treatment of TNBC cells with a PS and a chemotherapeutic drug was calculated based on the Chou-Talalay method using CompuSyn software. […] The unified dynamics algorithm uses a minimum of dose-data points to fit the general MAL theory.
as §2

human TNBC BT-549 cells = test: Fluorescence microscopy (Hoechst 33258) of cell morphology / cell death pathway; assay type: cell-based
Experimental: Grayscale images of cells stained with Hoechst 33258. Morphology of (A) untreated unirradiated cells, sham control; (B) illuminated cells; (C-E) cells treated with: PSs (InCLA, CBTN, and CPA) and paclitaxel in the dark; (F-H) PSs, followed by 1 minute light exposure; (I) paclitaxel unirradiated; (J-L) PSs and paclitaxel in the dark; (M-O) PSs co-treated with paclitaxel, then light-exposed; (P-Q) PSs co-treated with doxorubicin, then irradiated; (R) PSs and cisplatin, dark; (S-T) PSs and cisplatin, irradiated; (U) fluorouracil, dark; (V) InCLA with fluorouracil in the dark; (W) light-exposed and, (X-Y) PSs with methotrexate with light. Inserts indicate enlarged view. […] Light dose in 1 minute=0.96 J cm^−2; in 30 seconds=0.48 J cm^−2. Concentrations: PSs=50 nM; paclitaxel=50 nM; doxorubicin=500 nM; cisplatin=25 μM; fluororuracil=25 μM; and, methotrexate=500 nM.
Cells (1 mL aliquots) obtained from a diluted cell suspension were seeded into each well (1.7 cm^2, 8×10^3 cells/well) of a 4-well culture slide (BD Biosciences) and grown to confluence in 5% CO2 at 37° C. for 3-4 days for attachment to the substratum. After aspirating the old growth media, 1 mL of the photosensitizer and chemotherapeutic agents (with appropriate concentrations) in fresh pre-warmed media at 37° C. was added to each well. After compound treatment for 24 hours, cells were washed twice with 1 mL fresh growth media, and then irradiated with light using LumaCare LC-122 as described above. Cells were stained in the dark with Hoechst 33258 (Molecular Probes) in pre-warmed media for 10 minutes at 37° C., washed twice with filtered PBS, then fixed with filtered paraformaldehyde for 15 minutes in the incubator. After thorough liquid aspiration, the wells were removed and allowed to air dry in the dark for 1 hour. Slides were protected with coverslips, whose edges were sealed using clear fast-drying nail polish and allowed to dry at room temperature in the dark for 30 minutes. Images were recorded using fluorescence microscopy (DAPI for Hoechst 350-390 nm excitation and 460-490 nm emission filters) using an upright fluorescence microscope with Retiga imaging 2000R (Nikon Optiphot-2, 20× and 40×) and an image processing Nikon NIS-Elements V4.0 Qimaging software.
To determine the preferred cell death pathway for the binary chemophotodynamic therapy, tracking the hallmarks of apoptosis or necrosis was accomplished using a nuclear stain to monitor chromatin condensation and cellular contraction. TNBC cells are spindle-shaped and nearly round with intact cytoplasm, diffused chromatin, distinct cellular membrane, and large oval nuclei staining dark blue with the nuclear stain (FIG. 18A-B).

TNBC cells [2] = test: Combination index (CI) of binary therapy, Chou-Talalay method, CompuSyn software; assay type: cell-based, human; settings: PS 50 nM + methotrexate 500 μM (footnote 500 nM)
[3] = PS 100 nM + fluorouracil 25 μM, light

## C=Cc1c(C)c2cc3nc(c(CC(=O)OC)c4[nH]c(cc5nc(cc1[nH]2)C(C)=C5CC)c(C)c4C(=O)NCCCCCCNC(=O)CCCCC1SCC2NC(=O)NC21)C(CCC(=O)OC)C3C (stereo not shown) [CBTN, chlorin biotin conjugate]
TNBC BT-549 cells; PS 100 nM + cisplatin 25 μM, 24 h, light 0.96 J cm−2
  cell inhibition (%), combination with cisplatin: 53%
TNBC BT-549 cells; PS 100 nM + cisplatin 25 μM, light
  effect of added cisplatin compared to cisplatin-treated cell viability: reduced cell survival
TNBC BT-549 cells; PS 100 nM + doxorubicin 500 nM, 24 h, dark
  cell survival, co-treatment with doxorubicin in the dark: 51%
TNBC BT-549 cells; PS 100 nM + doxorubicin 500 nM, 24 h, light 0.96 J cm−2
  cell inhibition (%), combination with doxorubicin: 64%
TNBC BT-549 cells; PS 100 nM + doxorubicin 500 nM, light, 1440 min, 0.1 µM
  cell survival, co-treatment with doxorubicin upon light: 35% and 36%
TNBC BT-549 cells; PS 100 nM + drug, light
  best combination partner: with paclitaxel followed by doxorubicin or fluorouracil; also recorded: with paclitaxel, followed by doxorubicin or fluorouracil
TNBC BT-549 cells; PS 100 nM + fluorouracil 25 μM, 24 h, light 0.96 J cm−2
  cell inhibition (%), combination with fluorouracil: 64%
TNBC BT-549 cells; [3]
  cell viability reduction (difference) vs PS alone: 46%
  effect of added fluorouracil compared to fluorouracil-treated cell viability: reduced cell survival
TNBC BT-549 cells; PS 100 nM + fluorouracil 25 μM, light, 1440 min
  cell survival, co-treatment with fluorouracil upon light: 36%
TNBC BT-549 cells; PS 100 nM + methotrexate 500 nM, 24 h, dark
  cell survival, co-treatment with methotrexate in the dark: 85%
TNBC BT-549 cells; PS 100 nM + methotrexate 500 nM, 24 h, light 0.96 J cm−2
  cell inhibition (%), combination with methotrexate: 42%
TNBC BT-549 cells; PS 100 nM + paclitaxel 50 nM, 24 h, light 0.96 J cm−2
  cell inhibition (%), combination with paclitaxel: 65%
TNBC BT-549 cells; PS 100 nM + paclitaxel 50 nM, light, 1440 min
  cell survival, co-treatment with paclitaxel upon light: 35%
TNBC BT-549 cells; PS 100 nM alone or in combination, light
  chemophotodynamic potency against TNBC cells, summary: better activity against TNBC cells than the starting compound MePheo
TNBC BT-549 cells; PS 100 nM, light 0.96 J/cm^2, 1440 min, 0.1 µM
  cell survival, PS alone: 82% and 81%
TNBC BT-549 cells; PS 500 nM, dark
  cytotoxicity in the absence of light, PS alone: No cytotoxicity
TNBC BT-549 cells; PS + doxorubicin, light
  combination therapy vs monotherapy (doxorubicin): better photodynamic effect when co-treated with doxorubicin than PS-treatment alone
TNBC BT-549 cells; PS + fluorouracil, light
  combination therapy vs monotherapy (fluorouracil): best compared to monotherapy alone and with the other PSs used
TNBC BT-549 cells; PS at lower concentration (CPA: 50 nM) + methotrexate 500 nM, light
  cell viability reduction (difference) vs PS alone: 10%
TNBC cells [1]; PS 50 nM + cisplatin 25 μM
  combination index (CI) with cisplatin: 0.99
  synergism vs additive vs antagonism effect with cisplatin: (NA) (NA (0.9-1.10), nearly additive)
TNBC cells [1]; PS 50 nM + doxorubicin 500 nM
  combination index (CI) with doxorubicin: 2.44
  synergism vs additive vs antagonism effect with doxorubicin: (A) (A (1.45-3.3), antagonism)
TNBC cells [1]; PS 50 nM + drug
  ranking of combination partners based on CI, decreasing order: fluorouracil>paclitaxel>cisplatin
TNBC cells [1]; PS 50 nM + fluorouracil 25 μM
  combination index (CI) with fluorouracil: 0.48
  synergism vs additive vs antagonism effect with fluorouracil: (S) (S (0.3-0.7), synergism)
TNBC cells [1]; PS 50 nM + paclitaxel 50 nM
  combination index (CI) with paclitaxel: 0.74
  synergism vs additive vs antagonism effect with paclitaxel: (MS) (MS (0.7-0.85), moderate synergism)
Human TNBC BT-549 cells; PS 50 nM + cisplatin 25 μM, light 0.48 J/cm^2 (FIG. 18S-T)
  cell morphology, PS co-treated with cisplatin, light: a significant number of shrunk cells and chromatin condensation can be seen
Human TNBC BT-549 cells; PS 50 nM + doxorubicin 500 nM, irradiated
  cell morphology, PS co-treated with doxorubicin: No significant difference
Human TNBC BT-549 cells; PS 50 nM + methotrexate 500 nM, light (FIG. 18X-Y)
  cell morphology, PS co-treated with methotrexate, light: Very few cells exhibit chromatin condensation
Human TNBC BT-549 cells; PS 50 nM + paclitaxel 50 nM, light (FIG. 18M-O)
  cell morphology, PS co-treated with paclitaxel: shrunk cells and chromatin fragmentation are evident
Human TNBC BT-549 cells; PS 50 nM, 24 h, light (FIG. 18F-H)
  cell morphology, PS-treated then light: not as obvious
Human TNBC BT-549 cells; PS co-treated with paclitaxel or cisplatin
  preferred mode of cell death: apoptosis
TNBC cells [2]
  combination index (CI) with methotrexate: 1.57
  synergism vs additive vs antagonism effect with methotrexate: (A) (A (1.45-3.3), antagonism)
